From PMC11870044, “Exploring the Antibacterial and Antiparasitic Activity of Phenylaminonaphthoquinones—Green Synthesis, Biological Evaluation and Computational Study” (International Journal of Molecular Sciences, 2024)
Values after ≈ are worked out from the molar mass of the structure shown. Where two headings read alike, the source gives them in different places.

What was measured:
[1] = system: Klebsiella pneumoniae (ATCC 700603); assay: Minimum inhibitory concentration, broth dilution method; assay type: cell-based
Description: (§1) The microorganisms used were Staphylococcus aureus (ATCC 25923), Proteus mirabilis (ATCC 12453) Enterococcus faecalis (ATCC 29212), Escherichia coli (ATCC 25922), Salmonella typhimurium (ATCC 19585), and Klebsiella pneumoniae (ATCC 700603).
(§2) The antimicrobial activity of the phenylaminonaphthoquinones 1–12 was determined by the broth dilution method. The following concentrations were tested: 200, 100, 50, 25, and 12.5 μg/mL. After incubation, the microbial growth was examined. The results are expressed in minimum inhibitory concentration (MIC), the lowest concentration of phenylaminonaphthoquinones with no visible growth. The bactericidal/bacteriostatic activity was determined by sub-cultivation of the samples in normal culture media at appropriate temperatures and incubation times. The MIC of each compound was performed in triplicate. The compounds 1–12 were dissolved in DMSO. Cefazolin and cefotaxime were used as positive controls at the same compound concentrations.

[2] = system: Staphylococcus aureus (ATCC 25923); assay: as above; assay type: cell-based; details: for MIC: Staphylococcus aureus; for MIC S. aureus G+: broth dilution
Description: as §1, §2

[3] = system: Escherichia coli (ATCC 25922); assay: as above; assay type: cell-based
Description: as §1, §2

[4] = system: Proteus mirabilis (ATCC 12453); assay: as above; assay type: cell-based
Description: as §1, §2

[5] = system: Enterococcus faecalis (ATCC 29212); assay: as above; assay type: cell-based
Description: as §1, §2

[6] = system: Salmonella typhimurium (ATCC 19585); assay: as above; assay type: cell-based; details: Salmonella enterica, read-out: MIC S. typhimurium G−
Description: as §1, §2

[7] = system: Plasmodium falciparum 3D7 (chloroquine-sensitive); assay: In vitro antiplasmodial screening, parasitemia by flow cytometry; assay type: cell-based; design: Plasmodium falciparum 3D7 Growth Inhibition (%): concentration or dose not given beside the values; details: for Plasmodium falciparum 3D7 Growth Inhibition (%): mean ± SD; for IC50: Plasmodium falciparum
Description: (§3) The antimalarial activity assay was performed using Plasmodium falciparum 3D7 (chloroquine-sensitive) and FCR-3 (chloroquine-resistant) reference strains, which were cultured in vitro following the method described by Trager et al. with some modifications.
(§4) The experiments were performed in 96-well culture plates, where the stock solutions of compounds 1–12 (1, 0.1, 0.01, and 0.001 µg/mL) were tested. A total of 100 µL of each product was distributed in triplicate on the culture plates, and 100 µL of a red blood cell suspension (4% hematocrit, final parasitemia of 1% ring stage) was added, resulting in a final volume of 200 µL. The test plates were incubated at 37 °C for 48 h, and parasitemia was determined by flow cytometry (BDFACScalibur). Erythrocytes were taken from each well culture plate, and 100 µL of ethidium bromide (10 µg/mL) was added and incubated for 30 min. A total of 100,000 cells per well culture plate were acquired and analyzed. The IC50 of the pure products was determined by a regression curve of the percentage inhibition of parasite activity as a function of the logarithmic dose. Chloroquine diphosphate was used as the reference drug.

[8] = system: Plasmodium falciparum FCR-3 (chloroquine-resistant); assay: as above; assay type: cell-based; design: Plasmodium falciparum FCR-3 Growth Inhibition (%): concentration or dose not given beside the values; details: for IC50: Plasmodium falciparum, read-out: Plasmodium falciparum FCR-3 IC50; for Plasmodium falciparum FCR-3 Growth Inhibition (%): mean ± SD
Description: as §3, §4

[9] = Experimental log P, shake-flask method n-octanol/water; assay type: physicochemical; details: 25 ± 1 °C
Description: The mixture was then allowed to stand for 24 h at the same temperature for further phase separation. A stock solution with a concentration of 0.01 mol per liter in water, pre-saturated with n-octanol, was prepared for each compound. Duplicate test vessels containing a mixture of the stock solution and n-octanol (pre-saturated with water) were shaken on a vortex shaker for 5 min. Phase separation was achieved by centrifugation of the vessels for 3 min at 4000× g (25 ± 1 °C), and the concentration of the solute in the water phase (C water) was measured from their absorbance at 205 nm using a UV spectrophotometer. The partition coefficient was calculated using the following equation. Log Po/w = Log(C n-octanol/C water)
All the measurements were carried out at room temperature (25 ± 1 °C). In order to check the performance of the method, aniline was used as a reference substance.

P. falciparum 3D7 = system: P. falciparum 3D7; design: method as in PMID 33333397; details: literature compounds of Figure 2; read-out: IC50 against the 3D7 strain; cited from earlier work
[10] = ATCC700603, broth dilution, triplicate, read-out: MIC K. pneumonia G−
[11] = ATCC25923, broth dilution, triplicate, read-out: MIC S. aureus G+
[12] = ATCC25922, broth dilution, triplicate, read-out: MIC E. coli G−
[13] = ATCC12453, broth dilution, triplicate, read-out: MIC P. mirabilis G+
[14] = ATCC29212, broth dilution, triplicate, read-out: MIC E. faecalis G+
[15] = 3D7 chloroquine-sensitive, 48 h
[16] = 3D7 chloroquine-sensitive, 48 h, read-out: Plasmodium falciparum 3D7 IC50
[17] = FCR-3 chloroquine-resistant, 48 h
[18] = FCR3, FCR-3 chloroquine-resistant, 48 h
[19] = 3D7, 48 h, read-out: Plasmodium falciparum 3D7 IC50
[20] = ATCC700603, read-out: MIC K. pneumonia G−
[21] = ATCC25923, read-out: MIC S. aureus G+, broth dilution, triplicate
[22] = ATCC25922, read-out: MIC E. coli G−
[23] = ATCC12453, read-out: MIC P. mirabilis G+
[24] = ATCC29212, read-out: MIC E. faecalis G+

Structure (SMILES)	MIC [1, 10]	MIC [2, 11]	MIC [3, 12]	MIC [4, 13]	MIC [5, 14]	MIC ([6]; broth dilution, triplicate)	IC50 [7, 16]	logP [9]	IC50 [8, 18]	Plasmodium falciparum 3D7 Growth Inhibition (%) [7, 15]	MIC S. aureus G+ ([2]; triplicate)	Plasmodium falciparum FCR-3 Growth Inhibition (%) [8, 17]	also measured
Cc1nnc(SCC2=C(C(=O)O)N3C(=O)[C@@H](NC(=O)Cn4cnnn4)[C@H]3SC2)s1 [CFZ, cefazolin, reference compound]	8.5 µg/mL (≈ 18.7 µM)	4.2 µg/mL (≈ 9.24 µM)	> 50 µg/mL	5.6 µg/mL (≈ 12.3 µM)	8.4 µg/mL (≈ 18.5 µM)	7.1 µg/mL (≈ 15.6 µM)	–	–	–	–	–	–	–
CCN(CC)CCCC(C)Nc1ccnc2cc(Cl)ccc12 (stereo not drawn) [CQ, chloroquine, reference compound]	–	–	–	–	–	–	–	–	–	–	–	–	Plasmodium falciparum 3D7 IC50 [7, 15]: 0.06 µg/mL; IC50 ([8]; FCR3, 48 h): 0.33 µg/mL (≈ 1.03 µM)
CO/N=C(\C(=O)N[C@@H]1C(=O)N2C(C(=O)O)=C(COC(C)=O)CS[C@H]12)c1csc(N)n1 [CTX, cefotaxime, reference compound]	8.4 µg/mL (≈ 18.4 µM)	8.9 µg/mL (≈ 19.5 µM)	> 50 µg/mL	8.9 µg/mL (≈ 19.5 µM)	10.9 µg/mL (≈ 23.9 µM)	8.2 µg/mL (≈ 18 µM)	–	–	–	–	–	–	–
NC1=CC(=O)c2ccccc2C1=O [Compound 2-amino]	–	–	–	–	–	–	–	–	–	–	–	–	IC50 (P. falciparum 3D7): 5140 nM
Cc1ccccc1NC1=CC(=O)c2ccccc2C1=O [Compound 3]	26.3 µg/mL (≈ 99.9 µM)	3.2 to 5.7 µg/mL (≈ 12.2 to 21.6 µM)	25.5 µg/mL (≈ 96.8 µM)	19.9 µg/mL (≈ 75.6 µM)	50 µg/mL (≈ 190 µM)	13.2 µg/mL (≈ 50.1 µM)	0.0049 µg/mL	1.89 ± 1.12	0.12 µg/mL (≈ 0.456 µM)	98.0 ± 1.0%	3.8 µg/mL (≈ 14.4 µM)	97.0 ± 0.2%	Enhancement of antiplasmodial activity versus literature 2-amino/2-phenylaminonaphthoquinones ([7]; 3D7 strain, equimolar comparison): more than 250 fold; Potency relative to chloroquine against 3D7 strain ([7]; IC50 0.0049 vs 0.06 μg/mL): more than 10 fold; IC50 ([7]; 3D7, read-out: IC50 against 3D7 strain at equimolar concentrations): 18.6 nM
O=C1C=C(Nc2ccc(O)cc2)C(=O)c2ccccc21 [Compound 5]	–	–	–	–	–	–	–	1.17 ± 0.81	–	18.0 ± 1.0%	3.2 µg/mL (≈ 12.1 µM)	61.0 ± 2.0%	IC50 [7, 19]: > 1 µg/mL; MIC [1, 20]: > 50 µg/mL; MIC [2, 21]: 3.2 to 5.7 µg/mL (≈ 12.1 to 21.5 µM); MIC [3, 22]: > 50 µg/mL; MIC [4, 23]: 24.8 µg/mL (≈ 93.5 µM); MIC [5, 24]: > 50 µg/mL; MIC [6]: > 50 µg/mL; IC50 ([8]; FCR3, 48 h): 0.78 µg/mL (≈ 2.94 µM)
O=C1C(Cl)=C(Nc2ccc(O)cc2)C(=O)c2ccccc21 [Compound 6]	40 µg/mL (≈ 133 µM)	19.6 µg/mL (≈ 65.4 µM)	39.8 µg/mL (≈ 133 µM)	29.9 µg/mL (≈ 99.8 µM)	49.9 µg/mL (≈ 166 µM)	20 µg/mL (≈ 66.7 µM)	> 1 µg/mL	1.22 ± 0.13	0.87 µg/mL (≈ 2.9 µM)	41.0 ± 2.0%	–	56.0 ± 3.0%	–
COc1ccc(NC2=CC(=O)c3ccccc3C2=O)cc1 [Compound 7]	–	–	–	–	–	–	–	1.39 ± 0.15	–	49.0 ± 2.0%	5.7 µg/mL (≈ 20.4 µM)	57.0 ± 1.0%	IC50 [7, 19]: > 1 µg/mL; MIC [1, 20]: 37.3 µg/mL (≈ 134 µM); MIC [2, 21]: 3.2 to 5.7 µg/mL (≈ 11.5 to 20.4 µM); MIC [3, 22]: > 50 µg/mL; MIC [4, 23]: 18.4 µg/mL (≈ 65.9 µM); MIC [5, 24]: 31.2 µg/mL (≈ 112 µM); MIC [6]: 29.9 µg/mL (≈ 107 µM); IC50 ([8]; FCR3, 48 h): 0.88 µg/mL (≈ 3.15 µM)
CN(C1=C(Cl)C(=O)c2ccccc2C1=O)c1ccccc1 [Compound 12]	> 50 µg/mL	29 µg/mL (≈ 97.4 µM)	28.6 µg/mL (≈ 96.1 µM)	11.5 µg/mL (≈ 38.6 µM)	47.2 µg/mL (≈ 159 µM)	50 µg/mL (≈ 168 µM)	0.8 µg/mL	2.33 ± 0.02	> 1 µg/mL	62.0 ± 5.0%	–	25.0 ± 5.0%	–

Continued, in another order:

MIC [1, 10]	MIC [2, 11]	MIC [3, 12]	MIC [4, 13]	MIC [5, 14]	MIC ([6]; broth dilution, triplicate)	IC50 [7, 16]	logP [9]	IC50 [8, 18]	Structure (SMILES)	Plasmodium falciparum 3D7 Growth Inhibition (%) [7, 15]	MIC S. aureus G+ ([2]; triplicate)	Plasmodium falciparum FCR-3 Growth Inhibition (%) [8, 17]	also measured
> 50 µg/mL	3.2 to 5.7 µg/mL (≈ 12.8 to 22.9 µM)	26.3 µg/mL (≈ 106 µM)	40 µg/mL (≈ 160 µM)	49.9 µg/mL (≈ 200 µM)	38.8 µg/mL (≈ 156 µM)	0.16 µg/mL	1.42 ± 0.21	0.74 µg/mL (≈ 2.97 µM)	O=C1C=C(Nc2ccccc2)C(=O)c2ccccc21 [Compound 1, 2-phenylamino-1,4-naphthoquinone]	58.0 ± 3.0%	3.9 µg/mL (≈ 15.6 µM)	65.0 ± 1.0%	–
> 50 µg/mL	36.5 µg/mL (≈ 129 µM)	> 50 µg/mL	39.9 µg/mL (≈ 141 µM)	> 50 µg/mL	> 50 µg/mL	> 1 µg/mL	1.61 ± 0.11	> 1 µg/mL	O=C1C(Cl)=C(Nc2ccccc2)C(=O)c2ccccc21 [Compound 2]	37.0 ± 1.0%	–	13.0 ± 2.0%	–
44.6 µg/mL (≈ 150 µM)	> 50 µg/mL	> 50 µg/mL	40.9 µg/mL (≈ 137 µM)	37.1 µg/mL (≈ 125 µM)	32.5 µg/mL (≈ 109 µM)	> 1 µg/mL	2.2 ± 0.13	0.86 µg/mL (≈ 2.89 µM)	Cc1ccccc1NC1=C(Cl)C(=O)c2ccccc2C1=O [Compound 4]	42.0 ± 2.0%	–	56.0 ± 1.0%	–
49.1 µg/mL (≈ 156 µM)	21.9 µg/mL (≈ 69.8 µM)	> 50 µg/mL	52.6 µg/mL (≈ 168 µM)	40.1 µg/mL (≈ 128 µM)	49.9 µg/mL (≈ 159 µM)	> 1 µg/mL	1.81 ± 1.04	> 1 µg/mL	COc1ccc(NC2=C(Cl)C(=O)c3ccccc3C2=O)cc1 [Compound 8]	26.0 ± 2.0%	–	34.0 ± 2.0%	–
> 50 µg/mL	> 50 µg/mL	> 50 µg/mL	29.9 µg/mL (≈ 96.7 µM)	38.2 µg/mL (≈ 123 µM)	43.8 µg/mL (≈ 142 µM)	> 1 µg/mL	1.6 ± 0.23	> 1 µg/mL	COc1ccc(OC)c(NC2=CC(=O)c3ccccc3C2=O)c1 [Compound 9]	33.0 ± 1.0%	–	24.0 ± 2.0%	–
> 50 µg/mL	3.2 to 5.7 µg/mL (≈ 9.31 to 16.6 µM)	23.5 µg/mL (≈ 68.4 µM)	> 50 µg/mL	70.8 µg/mL (≈ 206 µM)	31.7 µg/mL (≈ 92.2 µM)	> 1 µg/mL	1.94 ± 0.56	> 1 µg/mL	COc1ccc(OC)c(NC2=C(Cl)C(=O)c3ccccc3C2=O)c1 [Compound 10]	20.0 ± 3.0%	4.7 µg/mL (≈ 13.7 µM)	21.0 ± 4.0%	–
> 50 µg/mL	3.2 to 5.7 µg/mL (≈ 12.2 to 21.6 µM)	> 50 µg/mL	44 µg/mL (≈ 167 µM)	30.2 µg/mL (≈ 115 µM)	> 50 µg/mL	> 1 µg/mL	2.31 ± 0.3	0.55 µg/mL (≈ 2.09 µM)	CN(C1=CC(=O)c2ccccc2C1=O)c1ccccc1 [Compound 11]	26.0 ± 8.0%	5.5 µg/mL (≈ 20.9 µM)	72.0 ± 2.0%	–
